According to DBAASP:
Converted amounts (≈) assume the structure as drawn. One block for each molecule: values may come before it.

Columns and labels:
Assay in all cases: ≥ marks a high value that may be exact or a test limit, other limits are often not marked, values filed in µg/mL are converted to µM
Aureobasidium pullulans = test system: Aureobasidium pullulans
[1] = test system: Candida albicans ATCC 10231
[2] = test system: Corynebacterium glutamicum ATCC 13032
[3] = test system: Escherichia coli ATCC 25922
[4] = test system: Pseudomonas aeruginosa ATCC 27853
[5] = test system: Staphylococcus aureus ATCC 9144
[6] = test system: Candida albicans ATCC 36232
[7] = test system: Escherichia coli ATCC 2592
[8] = test system: Micrococcus luteus ATCC 9341
[9] = test system: Pseudomonas aeruginosa ATCC 9027
[10] = test system: Staphylococcus aureus ATCC 6538
[11] = test system: Pseudomonas aeruginosa 253
[12] = test system: Pseudomonas aeruginosa 910
[13] = test system: Pseudomonas aeruginosa 919
[14] = test system: Pseudomonas aeruginosa PAO1
Escherichia coli UB1005 = test system: Escherichia coli UB1005
[15] = test system: Salmonella enterica subsp. enterica serovar Pullorum C79-13
[16] = test system: Salmonella enterica subsp. enterica serovar Typhi CMCC 50071
[17] = test system: Salmonella enterica subsp. enterica serovar Typhimurium ATCC 14028
[18] = test system: Salmonella enterica subsp. enterica serovar Typhimurium C77-31
[19] = test system: Staphylococcus aureus ATCC 25923
[20] = test system: Staphylococcus aureus ATCC 29213
[21] = test system: Staphylococcus epidermidis ATCC 12228
Bacillus cereus = test system: Bacillus cereus
Enterobacter cloacae = test system: Enterobacter cloacae
Enterococcus faecalis = test system: Enterococcus faecalis
Escherichia coli = test system: Escherichia coli
Leuconostoc lactis = test system: Leuconostoc lactis
Listeria innocua = test system: Listeria innocua
Micrococcus luteus = test system: Micrococcus luteus
Pasteurella multocida = test system: Pasteurella multocida
Pseudomonas aeruginosa = test system: Pseudomonas aeruginosa
[22] = test system: Staphylococcus epidermidis
Streptococcus uberis = test system: Streptococcus uberis
Escherichia coli BL21 = test system: Escherichia coli BL21
[23] = test system: Staphylococcus aureus ATCC 6538P
[24] = test system: Staphylococcus aureus ATCC BAA-41
Candida albicans = test system: Candida albicans
[25] = test system: Enterococcus faecalis ATCC 29212
[26] = test system: Pseudomonas aeruginosa H103
[27] = test system: Salmonella enterica serovar Typhimurium
Listeria monocytogenes = test system: Listeria monocytogenes
[28] = test system: Pseudomonas aeruginosa K799
[29] = test system: Salmonella enterica subsp. enterica serovar Typhimurium ATCC 14028s

MIC (Aureobasidium pullulans): ≥ 50 µM
MIC [1]: 25 µM (≈ 38.9 µg/mL)
MIC [2]: 0.8 µM (≈ 1.24 µg/mL)
MIC [3]: 12.5 µM (≈ 19.4 µg/mL)
MIC [4]: 6.3 µM (≈ 9.8 µg/mL)
MIC [5]: 25 µM (≈ 38.9 µg/mL)
Compound: CC(C)[C@H](NC(=O)[C@H](CCCCN)NC(=O)[C@H](C)NC(=O)[C@@H](NC(=O)[C@@H](NC(=O)[C@H](CCCN=C(N)N)NC(=O)[C@H](CCCN=C(N)N)NC(=O)[C@H](Cc1c[nH]c2ccccc12)NC(=O)[C@H](Cc1c[nH]c2ccccc12)NC(=O)[C@H](C)N)[C@@H](C)O)C(C)C)C(=O)N[C@@H](CCCN=C(N)N)C(=O)N[C@@H](CCCCN)C(N)=O [AWWRRTVAKVRK]

MIC [6]: ≥ 164 µM
MIC [7]: ≥ 164 µM
MIC [8]: ≥ 164 µM
MIC [9]: > 164 µM
MIC [10]: > 164 µM
Compound: CC(C)C[C@H](NC(=O)[C@H](CS)NC(=O)[C@H](Cc1cnc[nH]1)NC(=O)[C@H](C)NC(=O)[C@H](C)NC(=O)[C@H](CS)NC(=O)[C@H](C)NC(=O)[C@H](C)NC(=O)[C@@H](N)CC(=O)O)C(=O)N[C@@H](Cc1c[nH]c2ccccc12)C(=O)N[C@@H](CCCN=C(N)N)C(N)=O [DAACAAHCLWR]

MIC [11]: 8 µM (≈ 15.5 µg/mL)
MIC [12]: 5.66 µM (≈ 10.9 µg/mL)
MIC [13]: 22.6 µM (≈ 43.8 µg/mL)
MIC [14]: 4 µM (≈ 7.74 µg/mL)
Compound: CC[C@H](C)[C@H](NC(=O)[C@@H](N)Cc1ccccc1)C(=O)N[C@@H](CCCCN)C(=O)N[C@@H](Cc1c[nH]c2ccccc12)C(=O)N[C@@H](CCCN=C(N)N)C(=O)N[C@@H](Cc1ccccc1)C(=O)N[C@@H](CCCN=C(N)N)C(=O)N[C@@H](CCCN=C(N)N)C(=O)N[C@@H](Cc1c[nH]c2ccccc12)C(=O)N[C@@H](CCCCN)C(=O)N[C@@H](CCCCN)C(=O)N[C@@H](CCCN=C(N)N)C(=O)N[C@@H](CCCCN)C(N)=O [FIKWRFRRWKKRK]

MIC (Escherichia coli UB1005): 16 µM (≈ 31.4 µg/mL)
MIC [15]: 8 µM (≈ 15.7 µg/mL)
MIC [16]: ≥ 128 µM
MIC [17]: 128 µM (≈ 252 µg/mL)
MIC [18]: 16 µM (≈ 31.4 µg/mL)
MIC [19]: 16 µM (≈ 31.4 µg/mL)
MIC [20]: > 128 µM
MIC [21]: 8 µM (≈ 15.7 µg/mL)
Compound: NC(=O)CC[C@H](NC(=O)[C@H](Cc1c[nH]c2ccccc12)NC(=O)[C@H](CCCN=C(N)N)NC(=O)[C@H](CCCN=C(N)N)NC(=O)[C@H](Cc1c[nH]c2ccccc12)NC(=O)[C@@H](N)Cc1ccccc1)C(=O)N[C@@H](Cc1c[nH]c2ccccc12)C(=O)N[C@@H](CCCN=C(N)N)C(=O)N[C@@H](CCCN=C(N)N)C(=O)N[C@@H](CCCN=C(N)N)C(=O)N[C@@H](Cc1c[nH]c2ccccc12)C(=O)N[C@@H](Cc1ccccc1)C(N)=O [FWRRWQWRRRWF]

MIC (Bacillus cereus): ≥ 41.4 µM
MIC (Enterobacter cloacae): ≥ 41.4 µM
MIC (Enterococcus faecalis): ≥ 41.4 µM
MIC (Escherichia coli): > 41.4 µM
MIC (Leuconostoc lactis): ≥ 41.4 µM
MIC (Listeria innocua): ≥ 41.4 µM
MIC (Micrococcus luteus): ≥ 41.4 µM
MIC (Pasteurella multocida): ≥ 41.4 µM
MIC (Pseudomonas aeruginosa): > 41.4 µM
MIC [19]: > 41.4 µM
MIC [20]: > 41.4 µM
MIC [22]: ≥ 41.4 µM
MIC (Streptococcus uberis): ≥ 41.4 µM
Compound: CC[C@H](C)[C@H](NC(=O)CNC(=O)[C@H](CO)NC(=O)[C@@H](NC(=O)[C@H](CC(C)C)NC(=O)[C@H](CCC(=O)O)NC(=O)[C@H](CC(N)=O)NC(=O)[C@H](C)NC(=O)[C@H](CCCCN)NC(=O)[C@H](CCC(=O)O)NC(=O)[C@H](CCCCN)NC(=O)[C@@H](NC(=O)[C@H](CCCCN)NC(=O)[C@H](CCC(=O)O)NC(=O)[C@H](Cc1c[nH]c2ccccc12)NC(=O)[C@H](CC(C)C)NC(=O)CN)C(C)C)C(C)C)C(=O)N[C@H](C(=O)N[C@@H](CCC(=O)O)C(=O)NCC(=O)N[C@H](C(=O)N[C@@H](CCCCN)C(N)=O)C(C)C)C(C)C [GLWEKVKEKANELVSGIVEGVK]

MIC (Aureobasidium pullulans): 25 µM (≈ 37.8 µg/mL)
MIC [1]: 25 µM (≈ 37.8 µg/mL)
MIC [2]: 1.6 µM (≈ 2.42 µg/mL)
MIC [3]: 3.1 µM (≈ 4.69 µg/mL)
MIC [4]: 3.1 µM (≈ 4.69 µg/mL)
MIC [5]: 12.5 µM (≈ 18.9 µg/mL)
Compound: CC(C)[C@H](NC(=O)[C@H](C)NC(=O)[C@H](CCCN=C(N)N)NC(=O)[C@H](CCCN=C(N)N)NC(=O)[C@H](Cc1c[nH]c2ccccc12)NC(=O)[C@H](Cc1c[nH]c2ccccc12)NC(=O)CN)C(=O)N[C@@H](C)C(=O)N[C@@H](CCCCN)C(=O)N[C@H](C(=O)N[C@@H](CCCN=C(N)N)C(=O)N[C@@H](CCCCN)C(N)=O)C(C)C [GWWRRAVAKVRK]

MIC (Escherichia coli BL21): 1.41 µM (≈ 2.57 µg/mL)
MIC [14]: 1.41 µM (≈ 2.57 µg/mL)
MIC [23]: 16 µM (≈ 29 µg/mL)
MIC [24]: 16 µM (≈ 29 µg/mL)
MIC [22]: 0.5 µM (≈ 0.908 µg/mL)
Compound: CC[C@H](C)[C@H](NC(=O)[C@H](CCCCN)NC(=O)[C@H](CCCCN)NC(=O)[C@H](Cc1ccccc1)NC(=O)[C@H](CCCCN)NC(=O)[C@H](CCCCN)NC(=O)[C@H](Cc1c[nH]c2ccccc12)NC(=O)[C@@H](N)CCCCN)C(=O)NCC(=O)N[C@@H](C)C(=O)N[C@H](C(=O)N[C@@H](CC(C)C)C(=O)N[C@@H](CCCCN)C(=O)N[C@@H](CCCCN)C(=O)N[C@@H](CC(C)C)C(=O)O)C(C)C [KWKKFKKIGAVLKKL]

MIC (Candida albicans): 5.3 µM (≈ 7.99 µg/mL)
MIC [25]: 2.65 µM (≈ 4 µg/mL)
MIC (Escherichia coli UB1005): 2.65 µM (≈ 4 µg/mL)
MIC [11]: 16 µM (≈ 24.1 µg/mL)
MIC [12]: 16 µM (≈ 24.1 µg/mL)
MIC [13]: 16 µM (≈ 24.1 µg/mL)
MIC [26]: 10.6 µM (≈ 16 µg/mL)
MIC [14]: 16 µM (≈ 24.1 µg/mL)
MIC [27]: 5.3 µM (≈ 7.99 µg/mL)
MIC [19]: 5.3 µM (≈ 7.99 µg/mL)
MIC [22]: 1.33 µM (≈ 2 µg/mL)
Compound: CC[C@H](C)[C@H](NC(=O)[C@H](CCCN=C(N)N)NC(=O)[C@H](C)NC(=O)[C@H](CC(C)C)NC(=O)[C@@H](N)CCCN=C(N)N)C(=O)N[C@H](C(=O)N[C@H](C(=O)N[C@H](C(=O)N[C@@H](CCCN=C(N)N)C(=O)N[C@@H](Cc1c[nH]c2ccccc12)C(=O)N[C@@H](C)C(=O)N[C@@H](CCCN=C(N)N)C(N)=O)[C@@H](C)CC)C(C)C)C(C)C [RLARIVVIRWAR]

MIC [25]: 2.75 µM (≈ 4 µg/mL)
MIC (Escherichia coli UB1005): 1.38 µM (≈ 2 µg/mL)
MIC (Listeria monocytogenes): 0.172 µM (≈ 0.25 µg/mL)
MIC [28]: 11 µM (≈ 16 µg/mL)
MIC [29]: 22 µM (≈ 32 µg/mL)
MIC [19]: 2.75 µM (≈ 4 µg/mL)
MIC [22]: 0.688 µM (≈ 0.999 µg/mL)
Compound: CC[C@H](C)[C@H](NC(=O)[C@H](CCCN=C(N)N)NC(=O)[C@H](CO)NC(=O)[C@H](CC(C)C)NC(=O)[C@@H](N)CCCN=C(N)N)C(=O)N[C@H](C(=O)N[C@H](C(=O)N[C@H](C(=O)N[C@@H](CCCN=C(N)N)C(=O)N[C@H](C(=O)N[C@@H](CO)C(=O)N[C@@H](CCCN=C(N)N)C(N)=O)C(C)C)[C@@H](C)CC)C(C)C)C(C)C [RLSRIVVIRVSR]
